The record followed here is patent US20250154105A1, “POLYCYCLIC COMPOUND AND USE THEREOF” (TYK MEDICINES, INC., priority 2021, published 2025).

Experiment [1] has as its system human pleural mesothelioma cells NCI-H226. Description: Cell anti-proliferation experiment (CCK8), NCI-H226. In kind it is cell-based. In a few lines: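 Viability was measured by CCK-8 (3 h, A450) after 3-day treatment with 0.15–333.33 nM compound in 0.1% DMSO medium. Curve-fitted IC50 was based on viability normalised to no-drug and cell-free controls.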
The test system of another experiment is YAP-TEAD. Description: YAP-TEAD inhibitor activity by Nano luciferase method (8xGTiiC-nLuc reporter in 293T cells). To be noted: Homo sapiens, HEK-293T, 48 hours incubation, read-out: Nano-luciferase detection (IC50). In kind it is cell-based. In outline:
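293T cells transiently transfected with pGL3B-8xGTiiC-nLuc-CMV-fLuc, seeded 2000 cells/well, then treated 48 h at 37 °C with compounds in 1:3.16 dilution series (top 10,000 nM). Nano luciferase signal read after cell lysis; IC50 from percent of 0 nM control.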

A value given as a limit tells only on which side of the number the result lay.

As for `C[C@H](NC(=O)c1ccc2c(n1)c1ccccc1c(=O)n2-c1ccc(C(F)(F)F)cc1)c1ccccn1` [Example T-403], the IC50 (in experiment [1]; with YAP-TEAD) was at most 1000 nM throughout.
As to `Cc1cc2c(=O)n(-c3ccc(C(F)(F)F)cc3)c3ncc(C(=O)N[C@@H](C)c4ccccn4)cc3c2s1` [Example T-404], the IC50 (in experiment [1]; in the experiment with YAP-TEAD) was at most 1000 nM each time.
For `C[C@H](NC(=O)c1cnc2c(c1)c1sc(Cl)c(Br)c1c(=O)n2-c1ccc(C(F)(F)F)cc1)c1ccccn1` [Example T-405], the half-maximal inhibitory concentration (IC50) (in experiment [1]; with YAP-TEAD) was at most 1000 nM in each case.
Turning to `C[C@H](NC(=O)c1cnc2c(c1)c1cnccc1c(=O)n2-c1ccc(C(F)(F)F)cc1)c1ccccn1` [Example T-406], the IC50 (in experiment [1]; in the experiment on YAP-TEAD) was at most 1000 nM in each case.
`C[C@H](NC(=O)c1cnc2c(c1)c1cc(F)ccc1c(=O)n2-c1ccc(C(F)(F)F)cc1)c1ccccn1` [Example T-407]: the IC50 (in experiment [1]; in the experiment on YAP-TEAD) was at most 1000 nM each time.
As for `Cc1ccc2c(=O)n(-c3ccc(C(F)(F)F)cc3)c3ncc(C(=O)N[C@@H](C)c4ccccn4)cc3c2c1` [Example T-408], the IC50 (in experiment [1]; in the experiment with YAP-TEAD) was at most 1000 nM throughout.
For the compound `C[C@H](NC(=O)c1cnc2c(c1)c1nscc1c(=O)n2-c1ccc(C(F)(F)F)cc1)c1cccc(N)n1` [Example T-409], the IC50 (in experiment [1]; with YAP-TEAD) was at most 1000 nM each time.
`C[C@H](NC(=O)c1cnc2c(c1)c1cc(C#N)ccc1c(=O)n2-c1ccc(C(F)(F)F)cc1)c1ccccn1` [Example T-410]: the IC50 (in experiment [1]; in the experiment on YAP-TEAD) was at most 1000 nM in each case.
With `C[C@H](NC(=O)c1ccc2c(c1)c1c(cnn1CC(F)(F)F)c(=O)n2-c1ccc(C(F)(F)F)cc1)c1ccccn1` [Example T-411], the IC50 is 1000 to 5000 nM in experiment [1] and at most 1000 nM with YAP-TEAD.
For `C=CC(=O)Nc1ccc2c(c1)cc(C)c(=O)n2-c1ccc(C(F)(F)F)cc1` [Example T-412], in that order: at most 1000 nM and at most 1000 nM.
For `Cc1cc(=O)n(-c2ccc(C(F)(F)F)cc2)c2ccc(C(=O)N[C@@H](C)c3cccc(N)n3)cc12` [Example T-413], in that order: at most 1000 nM and at most 1000 nM.
Take `Cc1cc2cc(C(=O)N[C@@H](C)c3cccc(N)n3)ccc2n(-c2ccc(C(F)(F)F)cc2)c1=O` [Example T-414]: the IC50 (in experiment [1]; in the experiment with YAP-TEAD) was at most 1000 nM each time.
Turning to `Cc1cc2cc(C(=O)N[C@@H](C)c3ccccn3)ccc2n(-c2ccc(C(F)(F)F)cc2)c1=O` [Example T-415], the half-maximal inhibitory concentration (IC50) (in experiment [1]; with YAP-TEAD) was at most 1000 nM throughout.
Turning to `C[C@H](NC(=O)c1ccc2c(c1)cc(C(F)F)c(=O)n2-c1ccc(C(F)(F)F)cc1)c1cccc(N)n1` [Example T-417], the concentration for half-maximal inhibition (IC50) (in experiment [1]; in the experiment on YAP-TEAD) was at most 1000 nM throughout.
`C=CC(=O)Nc1ccc2c(c1)c1nscc1c(=O)n2-c1ccc(C(F)(F)F)cc1` [Example T-418]: the concentration for half-maximal inhibition (IC50) (in experiment [1]; in the experiment with YAP-TEAD) was at most 1000 nM in each case.
Turning to `C[C@H](NC(=O)c1ccc2c(c1)c1ncccc1c(=O)n2-c1ccc(C(F)(F)F)cc1)c1cccc(N)n1` [Example T-419], the half-maximal inhibitory concentration (IC50) (in experiment [1]; with YAP-TEAD) was at most 1000 nM in each case.
For `CNS(=O)(=O)c1ccc2c(c1)cc(C)c(=O)n2-c1ccc(C(F)(F)F)cc1` [Example T-421], the concentration for half-maximal inhibition (IC50) (in experiment [1]; in the experiment with YAP-TEAD) was at most 1000 nM in each case.
Consider `C[C@H](NC(=O)c1ccc2c(ccc(=O)n2-c2ccc(C(F)(F)F)cc2)c1)c1cccc(N)n1` [Example T-423], for which the half-maximal inhibitory concentration (IC50) (in experiment [1]; in the experiment with YAP-TEAD) was at most 1000 nM in each case.
In the case of `C=CC(=O)Nc1ccc2c(c1)c1c(c(=O)n2-c2ccc(C(F)(F)F)cc2)CCC1` [Example T-424], the 50% inhibitory concentration (IC50) (in experiment [1]; with YAP-TEAD) was at most 1000 nM throughout.
As to `C[C@H](NC(=O)c1ccc2c(c1)c1c(c(=O)n2-c2ccc(C(F)(F)F)cc2)CCC1)c1cccc(N)n1` [Example T-425], the IC50 (in experiment [1]; in the experiment with YAP-TEAD) was at most 1000 nM throughout.
With `COC[C@H](C)NC(=O)c1ccc2c(c1)C1=C(CCC1)CN2c1ccc(C(F)(F)F)cc1` [Example T-426], the IC50 (in experiment [1]; in the experiment with YAP-TEAD) was at most 1000 nM in each case.
As for `CNS(=O)(=O)c1ccc2c(c1)c1c(c(=O)n2-c2ccc(C(F)(F)F)cc2)CCC1` [Example T-427], the IC50 (in experiment [1]; with YAP-TEAD) was at most 1000 nM in each case.
As to `C[C@H](NC(=O)c1ccc2c(c1)c1c(c(=O)n2-c2ccc(C(F)(F)F)cc2)CCCC1)c1cccc(N)n1` [Example T-428], the IC50 (in experiment [1]; in the experiment on YAP-TEAD) was at most 1000 nM in each case.
For the compound `C[C@H](NC(=O)c1ccc2c(c1)c1sccc1c(=O)n2-c1ccc(C(F)(F)F)cc1)c1cccc(N)n1` [Example T-429], the IC50 (in experiment [1]; in the experiment with YAP-TEAD) was at most 1000 nM each time.
For the compound `CNc1cccc([C@H](C)NC(=O)c2ccc3c(ccc(=O)n3-c3ccc(C(F)(F)F)cc3)c2)n1` [Example T-430], the concentration for half-maximal inhibition (IC50) (in experiment [1]; in the experiment with YAP-TEAD) was at most 1000 nM each time.
Take `Cc1c(C)c2cc(C(=O)N[C@@H](C)c3cccc(N)n3)ccc2n(-c2ccc(C(F)(F)F)cc2)c1=O` [Example T-431]: the IC50 (in experiment [1]; with YAP-TEAD) was at most 1000 nM throughout.
With `CS(=O)(=O)Nc1ccc2c(c1)c1c(c(=O)n2-c2ccc(C(F)(F)F)cc2)CCC1` [Example T-432], the concentration for half-maximal inhibition (IC50) (in experiment [1]; in the experiment on YAP-TEAD) was at most 1000 nM in each case.
Consider `C[C@H](NC(=O)c1ccc2c(c1)c1cnccc1c(=O)n2-c1ccc(C(F)(F)F)cc1)c1cccc(N)n1` [Example T-434], for which the IC50 (in experiment [1]; in the experiment with YAP-TEAD) was at most 1000 nM in each case.
Turning to `C[C@H](NC(=O)c1ccc2c(c1)c1nscc1c(=O)n2-c1ccc(C(F)(F)F)cc1)c1cccc(N)n1` [Example T-435], the IC50 (in experiment [1]; in the experiment on YAP-TEAD) was at most 1000 nM each time.
Turning to `Cc1c(C)c2cc(C(=O)N[C@@H](C)c3ccccn3)ccc2n(-c2ccc(C(F)(F)F)cc2)c1=O` [Example T-436], the IC50 (in experiment [1]; in the experiment with YAP-TEAD) was at most 1000 nM in each case.
In the case of `C[C@H](NC(=O)c1cnc2c(c1)c1ccccc1c(=O)n2-c1ccc(C(F)(F)F)cc1)c1cccc(N)n1` [Example T-437], the concentration for half-maximal inhibition (IC50) (in experiment [1]; with YAP-TEAD) was at most 1000 nM throughout.
Regarding `C[C@H](NC(=O)c1cnc2c(c1)c1csnc1c(=O)n2-c1ccc(C(F)(F)F)cc1)c1ccccn1` [Example T-439], the IC50 (in experiment [1]; in the experiment with YAP-TEAD) was at most 1000 nM in each case.
In the case of `CC1CCc2c1c1cc(C(=O)N[C@@H](C)c3ccccn3)ccc1n(-c1ccc(C(F)(F)F)cc1)c2=O` (some centres unmarked) [Example T-445], the half-maximal inhibitory concentration (IC50) (in experiment [1]; with YAP-TEAD) was at most 1000 nM each time.
For `C[C@@H]1CCc2c1c(=O)n(-c1ccc(C(F)(F)F)cc1)c1ccc(C(=O)N[C@@H](C)c3ccccn3)cc21` [Example T-446], the IC50 (in experiment [1]; in the experiment with YAP-TEAD) was at most 1000 nM each time.
On to `COC[C@@H](C)NC(=O)c1ccc2c(c1)c1cnccc1c(=O)n2-c1ccc(C(F)(F)F)cc1` [Example T-448], for which the half-maximal inhibitory concentration (IC50) (in experiment [1]; in the experiment on YAP-TEAD) was 1000 to 5000 nM in each case.
Consider `C[C@H](NC(=O)c1cnc2c(c1)c1cscc1c(=O)n2-c1ccc(C(F)(F)F)cc1)c1cccc(N)n1` [Example T-454], for which the half-maximal inhibitory concentration (IC50) (in experiment [1]; in the experiment on YAP-TEAD) was at most 1000 nM in each case.
On to `C[C@H](NC(=O)c1cnc2c(ccc(=O)n2-c2ccc(C(F)(F)F)cc2)c1)c1cccc(N)n1` [Example T-455], for which the IC50 (in experiment [1]; with YAP-TEAD) was at most 1000 nM in each case.
As for `C[C@H](NC(=O)c1cnc2c(ccc(=O)n2-c2ccc(C(F)(F)F)cc2)c1)c1ccccn1` [Example T-456], the IC50 (in experiment [1]; in the experiment on YAP-TEAD) was at most 1000 nM throughout.
For the compound `Cc1cc(=O)n(-c2ccc(C(F)(F)F)cc2)c2ncc(C(=O)N[C@@H](C)c3cccc(N)n3)cc12` [Example T-457], the half-maximal inhibitory concentration (IC50) (in experiment [1]; in the experiment with YAP-TEAD) was at most 1000 nM each time.
On to `Cc1cc(=O)n(-c2ccc(C(F)(F)F)cc2)c2ncc(C(=O)N[C@@H](C)c3ccccn3)cc12` [Example T-458], for which the IC50 (in experiment [1]; in the experiment with YAP-TEAD) was at most 1000 nM throughout.
In the case of `Cc1cc(=O)n(-c2ccc(C(F)(F)F)cc2)c2ncc(C(=O)N[C@@H](C)c3ccccc3)cc12` [Example T-459], the IC50 (in experiment [1]; in the experiment on YAP-TEAD) was at most 1000 nM each time.
For `Cc1cc2cc(C(=O)N[C@@H](C)c3ccccn3)cnc2n(-c2ccc(C(F)(F)F)cc2)c1=O` [Example T-460], the IC50 (in experiment [1]; in the experiment with YAP-TEAD) was at most 1000 nM throughout.
On to `Cc1cc2cc(C(=O)N[C@@H](C)c3ccccc3)cnc2n(-c2ccc(C(F)(F)F)cc2)c1=O` [Example T-462], for which the 50% inhibitory concentration (IC50) (in experiment [1]; with YAP-TEAD) was at most 1000 nM in each case.
